Structures can show the parent of a compound that is named as a salt. Where two headings read alike, the source gives them in different places.
What was measured:
human NPY5 receptor = molecular target: T1, human NPY5 receptor (Homo sapiens, UniProt Q15761); assay: Binding affinity at the human NPY5 receptor
T1 construct: expressed in transfected cells
T1 sequence (Q15761 1-445): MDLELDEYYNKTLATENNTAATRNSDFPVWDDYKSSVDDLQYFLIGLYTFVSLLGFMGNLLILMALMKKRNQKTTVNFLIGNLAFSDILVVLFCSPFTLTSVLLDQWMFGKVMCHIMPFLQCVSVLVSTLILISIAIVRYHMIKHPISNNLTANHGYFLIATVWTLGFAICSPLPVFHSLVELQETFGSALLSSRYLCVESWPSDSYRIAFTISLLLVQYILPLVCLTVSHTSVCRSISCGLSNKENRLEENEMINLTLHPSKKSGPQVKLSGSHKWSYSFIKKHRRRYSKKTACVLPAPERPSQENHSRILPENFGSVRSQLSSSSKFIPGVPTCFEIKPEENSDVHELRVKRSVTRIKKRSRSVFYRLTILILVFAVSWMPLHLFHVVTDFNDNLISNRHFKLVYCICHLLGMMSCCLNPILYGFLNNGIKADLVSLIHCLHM
From the text: (§1) The design of such compounds can be optimized by determining their binding affinity at the recombinant MCH1, NPY1, NPY2, Gal1, Gal2, Gal3, and 5HT2C receptors. The methods to obtain the cDNA of the receptor, express said receptors in heterologous systems, and carry out assays to determine binding affinity are described in the following publications: human NPY1 (Larhammar et al., 1992), human NPY5 (U.S. Pat. No. 5,602,024, the disclosure of which is hereby incorporated by reference in its entirety into this application), human Gall (Habert-Ortoli et al., 1994), human Gal2 (Smith et al., 1997), human Gal3 (Smith et al., 1998), and rat 5HT2C (Julius et al., 1988). Additionally, the compounds would optimally not bind at the following receptors due to possible side effects: human H1 histamine and human H2 histamine receptors; human alpha-1A adrenergic, human alpha-1D adrenergic, human alpha-2A adrenergic, human alpha-2B adrenergic, and human alpha-2C adrenergic receptors; human dopamine D1, D2, D3, D4, and D5 receptors; the β-adrenoceptor; and the human 5HT1A, human 5HT1B, human 5HT1D, human 5HT1E, human 5HT1F, human 5HT2A, rat 5HT2C, human 5HT4, human 5HT6, and human 5HT7 receptors.

human GALR1 receptor = molecular target: T2, human GALR1 receptor (Homo sapiens, UniProt P47211); assay: Binding affinity at the human GALR1 receptor
T2 construct: expressed in transfected cells
T2 sequence (P47211 1-349): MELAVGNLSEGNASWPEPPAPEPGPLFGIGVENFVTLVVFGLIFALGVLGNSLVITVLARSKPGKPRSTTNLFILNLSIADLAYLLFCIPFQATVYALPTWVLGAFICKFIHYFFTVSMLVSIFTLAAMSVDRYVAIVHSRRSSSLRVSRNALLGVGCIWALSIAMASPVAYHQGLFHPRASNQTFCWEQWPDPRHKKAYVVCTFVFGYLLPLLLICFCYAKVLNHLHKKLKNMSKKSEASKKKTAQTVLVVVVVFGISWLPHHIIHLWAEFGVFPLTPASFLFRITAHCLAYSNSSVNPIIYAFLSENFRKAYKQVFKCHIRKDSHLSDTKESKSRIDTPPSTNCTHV

human GALR3 receptor = molecular target: T3, human GALR3 receptor (Homo sapiens, UniProt O60755); assay: Binding affinity at the human GALR3 receptor
T3 construct: expressed in transfected cells
T3 sequence (O60755 1-368): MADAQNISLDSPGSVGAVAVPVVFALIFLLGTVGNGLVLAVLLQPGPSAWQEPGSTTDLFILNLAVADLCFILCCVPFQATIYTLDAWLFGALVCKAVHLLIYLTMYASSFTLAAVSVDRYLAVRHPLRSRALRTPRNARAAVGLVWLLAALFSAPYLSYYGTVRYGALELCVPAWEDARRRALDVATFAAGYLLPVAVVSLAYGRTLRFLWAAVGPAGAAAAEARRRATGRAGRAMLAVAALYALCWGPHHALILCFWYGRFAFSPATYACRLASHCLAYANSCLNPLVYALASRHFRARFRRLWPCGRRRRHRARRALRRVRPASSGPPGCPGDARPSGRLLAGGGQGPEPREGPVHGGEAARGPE

rat 5HT2C receptor = molecular target: T4, rat 5HT2C receptor (Rattus norvegicus, UniProt P08909); assay: Binding affinity at the rat 5HT2C receptor
T4 construct: expressed in transfected cells
T4 sequence (P08909 33-460): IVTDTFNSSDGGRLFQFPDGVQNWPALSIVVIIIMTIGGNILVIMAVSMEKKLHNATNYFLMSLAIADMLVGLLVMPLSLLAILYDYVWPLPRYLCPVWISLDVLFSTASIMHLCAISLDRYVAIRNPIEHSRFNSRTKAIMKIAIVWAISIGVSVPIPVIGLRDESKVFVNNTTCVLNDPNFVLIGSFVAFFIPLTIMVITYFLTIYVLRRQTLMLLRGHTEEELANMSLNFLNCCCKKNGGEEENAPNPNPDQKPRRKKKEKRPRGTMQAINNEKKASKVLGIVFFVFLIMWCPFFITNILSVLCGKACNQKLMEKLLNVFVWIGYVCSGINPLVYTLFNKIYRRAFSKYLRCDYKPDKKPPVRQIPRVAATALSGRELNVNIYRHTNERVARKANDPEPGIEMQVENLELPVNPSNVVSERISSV
Procedure, shortened: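 Affinity measured by a literature binding protocol using rat 5HT2C cDNA expressed heterologously.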

human NPY1 receptor = molecular target: T5, human NPY1 receptor (Homo sapiens, UniProt P25929); assay: Binding affinity at the human NPY1 receptor
T5 construct: expressed in transfected cells
T5 sequence (P25929 1-384): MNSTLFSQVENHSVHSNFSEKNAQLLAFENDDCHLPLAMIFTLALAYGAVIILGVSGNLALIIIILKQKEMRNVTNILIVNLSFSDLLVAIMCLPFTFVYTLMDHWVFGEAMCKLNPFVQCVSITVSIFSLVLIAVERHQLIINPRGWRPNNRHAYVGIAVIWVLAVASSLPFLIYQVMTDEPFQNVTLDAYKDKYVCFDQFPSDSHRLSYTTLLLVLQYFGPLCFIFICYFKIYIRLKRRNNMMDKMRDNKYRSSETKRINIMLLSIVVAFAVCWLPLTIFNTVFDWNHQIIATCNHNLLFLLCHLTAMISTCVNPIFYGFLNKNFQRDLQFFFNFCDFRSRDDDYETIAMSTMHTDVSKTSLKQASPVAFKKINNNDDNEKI
From the text: as §1

Compound | Ki (human NPY5 receptor; Table 3a, read-out: hNPY5 Ki) | Ki (human NPY5 receptor; Table 3b, read-out: hNPY5 Ki) | Ki (human GALR1 receptor; Table 3a, read-out: hGALR1 Ki) | Ki (human GALR1 receptor; Table 3b, read-out: hGALR1 Ki) | Ki (human GALR3 receptor; Table 3a, read-out: hGALR3 Ki) | Ki (human GALR3 receptor; Table 3b, read-out: hGALR3 Ki) | Ki (rat 5HT2C receptor; Table 3a, read-out: r5HT2C Ki) | Ki (rat 5HT2C receptor; Table 3b, read-out: r5HT2C Ki) | Ki (human NPY1 receptor; Table 3a, read-out: hMPY1 Ki) | Ki (human NPY1 receptor; Table 3b, read-out: hNPY1 Ki) | Ki (human NPY5 receptor) | Ki (human NPY5 receptor; read-out: hNPY5 Ki, Table 3b) | Ki (human GALR1 receptor) | Ki (human GALR1 receptor; read-out: hGALR1 Ki, Table 3b) | Ki (human GALR3 receptor) | Ki (human GALR3 receptor; read-out: hGALR3 Ki, Table 3b) | Ki (human NPY1 receptor) | further results
CCCCN(CCCC)c1ccc(CN2CCC(CNC(=O)N3C(=O)NC(C)=C(C(=O)OC)C3c3ccc4nonc4c3)CC2)cc1 (centres unmarked) [Example 6] | 4.74 µM | 4.74 µM | 11.1 µM | 11.1 µM | 21.1 µM | 21.1 µM | 25.5 µM | 25.5 µM | 6.67 µM | 6.67 µM | – | – | – | – | – | – | – | –
COCC1=C(C(=O)OC)[C@H](c2ccc(F)c(F)c2)N(C(=O)NCCCN2CCC(c3cccc(NC(C)=O)c3)CC2)C(=O)N1 [Example 10, (+)-1,2,3,6-TETRAHYDRO-1-{N-[4-(3,-ACETAMIDO)-PHENYLPIPERIDIN-1-YL]PROPYL}CARBOXAMIDO-4-METHOXYMETHYL-6-(3,4-DIFLUORO-PHENYL)-2-OXOPYRIMIDINE-5-CARBOXYLIC ACID METHYL ESTER] | > 50 µM | > 50 µM | > 50 µM | > 50 µM | > 50 µM | > 50 µM | 29.6 µM | – | > 50 µM | > 50 µM | – | – | – | – | – | – | – | –
CCC1=C(C(=O)O)C(c2ccc(F)c(F)c2)N(C(=O)NCCCN2CCC3(CC2)OCc2ccccc23)C(=O)N1 (single isomer, unassigned; (+)) [Example 4, (+)-1,2,3,6-TETRAHYDRO-1-1N-[4-(BENZO-4′,5′(H)FURAN)PIPERIDIN-1-YL]PROPYL}-CARBOXAMIDO-4-ETHYL-6-(3,4-DIFLUOROPHENYL)-2-OXO-PYRIMIDINE-5 CARBOXYLIC ACID HYDROCHLORIDE] | > 50 µM | > 50 µM | > 50 µM | > 50 µM | > 50 µM | > 50 µM | 34.8 µM | – | > 50 µM | > 50 µM | – | – | – | – | – | – | – | –
2-(3,4-DIFLUOROPHENYL)4,5-DIHYDROIMIDAZOLE-1-CARBOXYLIC ACID {3-[4-PHENYL-4-(4-BROMO-5-METHYLTHIOPNEN-2-YL)]-PROPYL}-AMIDE [Example 19] | > 50 µM | > 50 µM | > 50 µM | > 50 µM | > 50 µM | > 50 µM | 11.7 µM | 11.7 µM | > 50 µM | > 50 µM | – | – | – | – | – | – | – | –
COC(=O)C1=C(C)NC(=O)N(C(=O)NCCCN2CCC3(CC2)OCc2ccccc23)C1c1ccc2nonc2c1 (single isomer, unassigned) [Example 18, HYDROCHLORIDE] | – | – | – | – | – | – | 32.6 µM | – | – | – | > 50 µM | > 50 µM | > 50 µM | > 50 µM | > 50 µM | > 50 µM | > 50 µM | Ki (human NPY1 receptor; read-out: hNPY1 Ki, Table 3b): > 50 µM
COC(=O)C1=C(C)NC(=O)N(C(=O)NCCCN2CCC3(CC2)OCc2ccccc23)C1c1ccc(F)c(F)c1 (centres unmarked) [Example 20, 4-(3,4-DIFLUORPHENYL)-6-METHYL-2-OXO-3-{[3-(4-SPIRO[ISOBENZOFURAN-1(3H),4′-PIPERIDINE]PROPYL}-1,2,3,4-TETRAHYDROPYRIMIDINE-5-CARBOXYLIC ACID METHYL ESTER] | – | – | – | – | – | – | 15.1 µM | 15.1 µM | – | – | > 50 µM | > 50 µM | > 50 µM | > 50 µM | > 50 µM | > 50 µM | 27.1 µM | Ki (human NPY1 receptor; read-out: hMPY1 Ki, Table 3a): 27.1 µM
COCC1=C(C(=O)OC)C(c2ccc(F)c(F)c2)N(C(=O)NCCCN2CCC(c3cccc(NC(C)=O)c3)CC2)C(=O)N1 (single isomer, unassigned; (-)) [Example 1, (−)-1,2,3,6-TETRAHYDRO-1-{N-[4-(3,-ACETAMIDO)-PHENYLPIPERIDIN-1-YL]PROPYL}CARBOXAMIDO-4-METHOXYMETHYL-6-(3,4-DIFLUORO-PHENYL)-2-OXOPYRIMIDINE-5-CARBOXYLIC ACID METHYL ESTER] | > 50 µM | > 50 µM | > 50 µM | > 50 µM | > 50 µM | > 50 µM | > 50 µM | > 50 µM | > 50 µM | > 50 µM | – | – | – | – | – | – | – | –
O=C(CCCN1CCC(O)(c2ccc(Cl)cc2)CC1)c1ccc(Cl)cc1 [Example 29] | – | – | – | – | – | – | – | – | – | – | 46.1 µM | 46.1 µM | > 50 µM | > 50 µM | > 50 µM | > 50 µM | > 50 µM | Ki (rat 5HT2C receptor): > 50 µM; Ki (rat 5HT2C receptor; read-out: r5HT2C Ki, Table 3b): > 50 µM; Ki (human NPY1 receptor; read-out: hNPY1 Ki, Table 3b): > 50 µM
